The test system of assay [1] is Aorta. Description: Vasodilatory activity in Sprague-Dawley rat endothelium-intact thoracic aortic ring assessed as inhibition of phenylephrine-induced contraction. It is filed as functional, tissue-based.
Assay [2] relates to Aorta. Kind of assay: Vasodilatory activity in Sprague-Dawley rat endothelium-intact thoracic aortic ring assessed as inhibition of phenylephrine-induced contraction at 0.1 to 100 uM. It counts as functional.
In assay [3] the test system is Aorta. Kind of assay: Vasodilatory activity in Sprague-Dawley rat endothelium-denuded thoracic aortic ring assessed as inhibition of phenylephrine-induced contraction. It counts as functional, tissue-based.
Assay [4] has as its system Aorta. Description: Vasodilatory activity in Sprague-Dawley rat endothelium-denuded thoracic aortic ring assessed as inhibition of phenylephrine-induced contraction at 0.1 to 100 uM. It is filed as functional.
Assay [5] deals with Aorta. Description: Vasodilatory activity in endothelium-denuded Sprague-Dawley rat thoracic aortic ring assessed as inhibition of phenylephrine-induced contraction preincubated with L-NAME for 10 mins. It is filed as functional, tissue-based.
The test system of assay [6] is Aorta. Kind of assay: Vasodilatory activity in endothelium-denuded Sprague-Dawley rat thoracic aortic ring assessed as inhibition of phenylephrine-induced contraction in absence of L-NAME. It counts as functional, tissue-based.
Assay [7] has as its system Aorta. Description: Vasodilatory activity in endothelium-denuded Sprague-Dawley rat thoracic aortic ring assessed as inhibition of phenylephrine-induced contraction preincubated with TEA for 1 hr. It is filed as functional, tissue-based.
The nature of assay [8]: Antagonist activity at alpha-adrenoceptor in Sprague-Dawley rat endothelium denuded thoracic aorta assessed as inhibition of phenylephrine-induced contraction. It counts as functional, tissue-based.
Assay [9] has as its target T1, Adrenergic receptor alpha-1 (Rattus norvegicus, UniProt P15823+P23944+P43140).
T1 sequence (P15823 whole entry): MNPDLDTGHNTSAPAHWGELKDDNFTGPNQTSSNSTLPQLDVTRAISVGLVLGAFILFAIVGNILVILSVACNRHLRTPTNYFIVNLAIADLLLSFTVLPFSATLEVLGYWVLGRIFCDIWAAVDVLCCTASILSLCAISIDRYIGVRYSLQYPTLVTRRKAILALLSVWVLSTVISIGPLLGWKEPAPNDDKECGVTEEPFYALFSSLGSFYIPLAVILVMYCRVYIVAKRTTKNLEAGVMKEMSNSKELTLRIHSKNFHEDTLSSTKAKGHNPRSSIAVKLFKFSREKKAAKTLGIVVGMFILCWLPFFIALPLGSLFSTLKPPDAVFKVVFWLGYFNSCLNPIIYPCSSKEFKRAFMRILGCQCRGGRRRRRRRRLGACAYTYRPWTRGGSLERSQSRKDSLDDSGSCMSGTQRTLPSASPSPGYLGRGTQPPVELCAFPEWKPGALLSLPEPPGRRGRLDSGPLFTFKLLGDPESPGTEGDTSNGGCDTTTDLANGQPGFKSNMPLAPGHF
T1 sequence (P23944 whole entry): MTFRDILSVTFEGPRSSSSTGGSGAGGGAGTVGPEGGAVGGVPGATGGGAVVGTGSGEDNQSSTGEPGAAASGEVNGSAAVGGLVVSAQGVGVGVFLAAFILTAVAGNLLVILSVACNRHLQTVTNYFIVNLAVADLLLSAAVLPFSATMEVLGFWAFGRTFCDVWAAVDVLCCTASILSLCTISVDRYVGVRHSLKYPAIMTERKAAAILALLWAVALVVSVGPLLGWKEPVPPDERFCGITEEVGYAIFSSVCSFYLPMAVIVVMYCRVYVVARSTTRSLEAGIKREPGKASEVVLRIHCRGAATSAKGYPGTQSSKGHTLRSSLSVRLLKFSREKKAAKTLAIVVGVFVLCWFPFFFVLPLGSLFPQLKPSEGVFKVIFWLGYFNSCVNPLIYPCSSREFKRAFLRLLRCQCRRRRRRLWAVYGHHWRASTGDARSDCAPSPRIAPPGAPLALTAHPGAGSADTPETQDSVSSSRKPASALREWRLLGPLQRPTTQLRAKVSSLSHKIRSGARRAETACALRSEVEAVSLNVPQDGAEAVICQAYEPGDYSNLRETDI
T1 sequence (P43140 whole entry): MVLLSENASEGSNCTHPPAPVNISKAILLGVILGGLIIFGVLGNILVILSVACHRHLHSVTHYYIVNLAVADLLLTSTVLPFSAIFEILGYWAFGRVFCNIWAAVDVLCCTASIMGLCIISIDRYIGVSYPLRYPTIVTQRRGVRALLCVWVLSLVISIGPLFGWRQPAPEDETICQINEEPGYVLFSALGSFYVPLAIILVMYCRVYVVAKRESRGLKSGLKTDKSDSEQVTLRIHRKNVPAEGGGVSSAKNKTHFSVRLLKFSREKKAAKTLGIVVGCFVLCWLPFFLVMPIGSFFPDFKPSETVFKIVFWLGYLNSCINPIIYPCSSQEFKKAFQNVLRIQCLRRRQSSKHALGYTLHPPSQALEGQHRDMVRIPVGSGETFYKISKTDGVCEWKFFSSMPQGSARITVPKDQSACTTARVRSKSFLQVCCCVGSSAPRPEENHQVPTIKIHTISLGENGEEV
Kind of assay: Displacement of [3H]prazosin from alpha1 adrenoceptor in rat heart membrane. It is filed as cell membranes. (Displacement assays read how much labelled ligand stays bound in the presence of the test substance.)

A short description of assay [10]: Binding affinity to DHP binding site of L-type calcium channel at > 100 uM by radioligand binding assay.
The nature of assay [11]: Antagonist activity at 5-HT receptor in Sprague-Dawley rat endothelium denuded thoracic aorta assessed as inhibition of 5HT-induced contraction. It counts as functional, tissue-based.
The subject of assay [12] is Aorta. Kind of assay: Vasodilatory activity in Sprague-Dawley rat thoracic aortic ring assessed as inhibition of potassium chloride-induced contraction. It counts as functional, tissue-based.
Assay [13] can be described thus: Binding affinity to DHP binding site of L-type calcium channel by radioligand binding assay.
For assay [14], the system named is Aorta. Kind of assay: Vasodilatory activity in Sprague-Dawley rat endothelium-intact thoracic aortic ring assessed as inhibition of phenylephrine-induced contraction at 100 uM. It is filed as functional. Also noted: scale not given: the % may be the effect or the level left.

Activity calls are given as the source filed them. The calls are words filed in the database; no cut-off is given here.

As a reminder, the EC50 is the midpoint of the concentration-response curve. A word on the Emax: it is the maximal effect, on the per cent scale that the assay sets. As a reminder, the pA2 is the negative logarithm of the molar antagonist concentration that doubles the agonist concentration needed for the same response. Usually Ki stands for a dissociation constant, usually derived from enzyme kinetics or from competition with a known ligand. For `C[n+]1c2n(c(=O)c3ccccc31)CCc1c-2[nH]c2ccccc12` [DEHYDROEVODIAMINE], the EC50 in the assay on Aorta [1] was found to be 1.64 µM; in the assay with Aorta [3] it was 7.78 µM; with Aorta [5] it was 5.83 µM; with Aorta [6], 1.6 µM. In addition, the Emax in the assay with Aorta [2] and with Aorta [4] was 100% throughout. Moreover, the result (in the assay with Aorta [7]; in assay [10]) was Active. The pA2 in [8] is listed as 6.89. In assay [9], this compound gave a Ki of 2.4 µM.

Take `CN1c2ccccc2C(=O)N2CCc3c([nH]c4ccccc34)[C@@H]21` [EVODIAMINE]: the EC50 is 0.93 µM with Aorta [1], 8.14 µM with Aorta [3] and 2.92 µM in the assay on Aorta [5]. The Emax amounted to 100% in the assay on Aorta [2] and 49.8% in the assay on Aorta [4]. Further, the result in the assay on Aorta [7] and in the assay with Aorta [12] was Active. In assay [11], the pA2 was determined as 6.25. The result in assay [13] was inactive.

For `O=c1c2ccccc2nc2n1CCc1c-2[nH]c2ccccc12` [RUTAECARPINE], the Activity in the assay on Aorta [14] is listed as 72%. The EC50 in the assay on Aorta [1] amounted to 1.05 µM; with Aorta [3] it was 1.75 µM. In addition, the Emax with Aorta [2] stood at 96%; in the assay with Aorta [4], 23%. In addition, the outcome in the assay on Aorta [7] was Active. Also, the outcome in assay [13] was inactive.

For the origin of these results see ChEMBL document CHEMBL1158226, “Comparative study of the vasodilatory effects of three quinazoline alkaloids isolated from Evodia rutaecarpa” (J Nat Prod, 1996).
